Here are results for one compound from US9212204B2, “Treatment of rett syndrome using glycyl-L-2-methylprolyl-L-glutamic acid” (priority 2011, dated 2015).

Non-standard residues stand in square brackets, D forms with d. Residues, ends and D or L forms follow the SMILES beside them. αMeP = C[C@@]1(C(=O)O)CCCN1

Assay [1] relates to animals with hypoxic-ischemic injuries caused by middle cerebral artery occlusion. To be noted: MCaO; cited from earlier work.
Assay [2] deals with layer 5 cortical neurons of MeCP2-/y mice. The assay can be described thus: Whole-cell recordings of spontaneous EPSCs in acute brain slices. Format: in vivo, mouse. To be noted: 20 mg/kg i.p. daily P15 to P28-P32; vs MeCP2-/y mice treated with vehicle. As for the experimental part: For the survival measurements, the nocturnal activity analysis and the immunoblot analysis, G-2-MePE (synthesised Albany Molecular Research Inc. (Albany, N.Y.) and supplied by Neuren Pharmaceuticals Limited) is administered daily via intra-peritoneal injections (20 mg/kg, vehicle=saline, 0.01% BSA). The treatment starts at PI 5 and is maintained throughout the course of the experiments. For intracellular physiology experiments, the mice are injected daily with G-2-MePE (20 mg/kg body weight, vehicle=saline, 0.01% BSA) for 2 weeks, from P15 to P28-P32 when they are used for acute slice preparation. For optical imaging experiments, mice are injected with G-2-MePE (20 mg/kg body weight, vehicle=saline, 0.01% BSA) daily from the day of the lid suture to the day of imaging. […]
Borosilicate pipettes (3-5 MΩ, WP1) are pulled using a Sutter P-80 puller (Sutter Instruments). Cells are visualized with an Achroplan 40× water-immersion lens with infrared-DIC optics (Zeiss) and detected with an infrared camera (Hamamatsu) projecting to a video monitor. […] Then in current clamp ˜10 pulses (500 ms, 40-140 pA at 10 pA increments), are applied to quantify evoked firing rates and cellular excitability. […] Analysis is performed using a custom software package written in Matlab, with all events detected according to automated thresholds and blindly verified for each event individually by the experimenter. […]

The test system of assay [3] is neurons in the CA3 region of the hippocampus. The assay can be described thus: Neuron soma size in the hippocampus. Format: in vivo, mouse. As for the experimental part:
We also measure the effect of G-2-MePE treatment on neuron soma size in the hippocampus. Mice are treated with G-2-MePE as described above for locomotor activity.

`C[C@@]1(C(=O)N[C@@H](CCC(=O)O)C(=O)O)CCCN1C(=O)CN` [Example G-2-MePE, Glycyl-L-2-methylprolyl-L-glutamic acid] (H-Gly-[αMeP]-Glu-OH): in assay [1], the “non-convulsive seizures (NCS)” value is listed as “inhibit”. The “spontaneous EPSC amplitude” value in assay [2] is “significantly larger”. Also, the average soma size entry in assay [3] (KO animals) is listed as “increases”. For the same compound, the soma size entry in assay [3] (wild type animals) is on record as “little or no effect”.
